The values that follow come from ChEMBL document CHEMBL4765382, “Novel anilide and benzylamide derivatives of arylpiperazinylalkanoic acids as 5-HT/5-HT receptor antagonists and phosphodiesterase 4/7 inhibitors with procognitive and antidepressant activity” (Eur J Med Chem, 2020).

Data set [1] deals with T1, 5-hydroxytryptamine receptor 1A (Homo sapiens, UniProt P08908).
T1 sequence (P08908 whole entry): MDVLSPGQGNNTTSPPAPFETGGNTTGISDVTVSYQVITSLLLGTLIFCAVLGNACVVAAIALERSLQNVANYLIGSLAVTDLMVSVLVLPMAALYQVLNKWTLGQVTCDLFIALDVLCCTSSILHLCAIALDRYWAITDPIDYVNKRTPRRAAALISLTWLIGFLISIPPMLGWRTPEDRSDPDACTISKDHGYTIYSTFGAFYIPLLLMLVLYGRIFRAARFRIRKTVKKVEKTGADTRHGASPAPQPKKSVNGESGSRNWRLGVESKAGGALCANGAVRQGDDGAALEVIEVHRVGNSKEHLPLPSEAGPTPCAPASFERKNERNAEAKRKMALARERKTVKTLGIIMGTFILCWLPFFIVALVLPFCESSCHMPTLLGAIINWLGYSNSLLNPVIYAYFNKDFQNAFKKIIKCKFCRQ
Nature of the data set: Displacement of [3H]8-OH-DPAT from human 5HT1A receptor expressed in HEK293 cells measured after 1 hr by microbeta counting method. It counts as cell-based. A general note: Loss of bound radioactivity is the signal in a displacement assay; it reports binding, not function.

Data set [2] concerns the target T2, 5-hydroxytryptamine receptor 7 (Homo sapiens, UniProt P34969). Nature of the data set: Displacement of [3H]-5-CT from human 5HT7 receptor expressed in HEK293 cells measured after 1 hr by microbeta counting method. It counts as cell-based.
Data set [3] deals with 3',5'-cyclic-AMP phosphodiesterase 4B (Homo sapiens, UniProt Q07343). Nature of the data set: Inhibition of recombinant human PDE4B expressed in Sf9 cells measured after 10 mins by luminescence based assay.
Data set [4] has as its target High affinity 3',5'-cyclic-AMP phosphodiesterase 7A (Homo sapiens, UniProt Q13946). Nature of the data set: Inhibition of recombinant human PDE7A expressed in Sf9 cells measured after 10 mins by luminescence based assay.
A short description of data set [5]: Effective permeability of the compound at 200 uM incubated for 5 hrs by PAMPA based UPLC/MS analysis. It counts as ADME. The settings on record: read-out: Peff. A general note: The PAMPA barrier holds no transporters, so it reflects passive diffusion.
Data set [6] in a line: Metabolic stability of the compound in rat liver microsomes assessed as parent compound remaining at 50 uM preincubated for 5 mins followed by incubation with NADPH regenerating system for 120 mins by LC/MS analysis. It counts as ADME, Microsome. The settings on record: read-out: Stabilty. A general note: Liver microsomes are a subcellular fraction often used to study metabolism.

Data set [7] is described as follows: Toxicity in Wistar rat assessed as rearings at 20 mg/kg, ip measured after 30 mins by open field test. It counts as organism-based. As to conditions: in vivo, 0.5 h.
The nature of data set [8]: Toxicity in Wistar rat assessed as total ambulations at 20 mg/kg, ip measured after 30 mins by open field test. It counts as organism-based. As to conditions: in vivo, 0.5 h.
Data set [9] in a line: Toxicity in Wistar rat assessed as total distance travelled at 20 mg/kg, ip measured after 30 mins by open field test (reference value: 1897.3 +/-98.6 cm). The settings on record: in vivo, 0.5 h. It counts as organism-based.
Data set [10] deals with Rattus norvegicus. The experiment in a line: Antidepressant-like activity in Wistar rat assessed as reduction in immobility time at 20 mg/kg, ip measured after 30 mins by Forced swimming test. It counts as functional. As to conditions: 0.5 h.
A short description of data set [11]: Toxicity in Wistar rat assessed as rearings at 3 to 10 mg/kg, ip measured after 60 mins by open field test. It counts as organism-based. The settings on record: in vivo, 1 h.
Data set [12] is described as follows: Toxicity in Wistar rat assessed as total ambulations at 3 to 10 mg/kg, ip measured after 60 mins by open field test. The settings on record: in vivo, 1 h. It counts as organism-based.
Data set [13] has as its target T2, 5-hydroxytryptamine receptor 7. Nature of the data set: Antagonist activity at recombinant human 5HT7 receptor expressed in CHO-K1 cells co-transfected with beta-lactamase reporter gene assessed as inhibition of serotonin-induced cAMP accumulation measured after 1 hr by LANCE TR-FRET assay. It counts as functional, cell-based. As to conditions: filed as antagonist.

Data set [14] has the same target. The experiment in a line: Agonist activity at recombinant human 5HT7 receptor expressed in CHO-K1 cells co-transfected with beta-lactamase reporter gene assessed as cAMP accumulation measured after 1 hr by LANCE TR-FRET assay. It counts as functional, cell-based.
Data set [15] concerns the target T1, 5-hydroxytryptamine receptor 1A. The experiment in a line: Binding affinity to 5HT-1A receptor (unknown origin).
For data set [16], the target named is T2, 5-hydroxytryptamine receptor 7. Nature of the data set: Binding affinity to 5HT7 receptor (unknown origin).

Active and inactive are the calls of the source. The rule behind the calls is not given here. Where only a bound is given, the exact number is not on record here.

T2 sequence (P34969 whole entry): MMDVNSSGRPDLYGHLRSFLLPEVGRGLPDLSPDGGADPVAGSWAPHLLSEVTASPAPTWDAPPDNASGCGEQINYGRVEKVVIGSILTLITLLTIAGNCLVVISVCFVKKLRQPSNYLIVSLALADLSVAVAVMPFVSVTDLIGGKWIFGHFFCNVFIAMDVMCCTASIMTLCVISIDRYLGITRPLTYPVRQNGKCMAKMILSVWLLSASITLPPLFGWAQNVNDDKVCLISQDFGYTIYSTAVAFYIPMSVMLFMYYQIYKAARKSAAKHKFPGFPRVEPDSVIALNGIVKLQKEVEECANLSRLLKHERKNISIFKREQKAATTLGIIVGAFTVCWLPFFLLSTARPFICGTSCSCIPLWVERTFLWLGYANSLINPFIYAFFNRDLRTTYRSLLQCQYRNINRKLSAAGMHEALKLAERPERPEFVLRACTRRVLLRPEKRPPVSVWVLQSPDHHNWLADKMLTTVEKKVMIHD
3',5'-cyclic-AMP phosphodiesterase 4B, sequence (Q07343 whole entry): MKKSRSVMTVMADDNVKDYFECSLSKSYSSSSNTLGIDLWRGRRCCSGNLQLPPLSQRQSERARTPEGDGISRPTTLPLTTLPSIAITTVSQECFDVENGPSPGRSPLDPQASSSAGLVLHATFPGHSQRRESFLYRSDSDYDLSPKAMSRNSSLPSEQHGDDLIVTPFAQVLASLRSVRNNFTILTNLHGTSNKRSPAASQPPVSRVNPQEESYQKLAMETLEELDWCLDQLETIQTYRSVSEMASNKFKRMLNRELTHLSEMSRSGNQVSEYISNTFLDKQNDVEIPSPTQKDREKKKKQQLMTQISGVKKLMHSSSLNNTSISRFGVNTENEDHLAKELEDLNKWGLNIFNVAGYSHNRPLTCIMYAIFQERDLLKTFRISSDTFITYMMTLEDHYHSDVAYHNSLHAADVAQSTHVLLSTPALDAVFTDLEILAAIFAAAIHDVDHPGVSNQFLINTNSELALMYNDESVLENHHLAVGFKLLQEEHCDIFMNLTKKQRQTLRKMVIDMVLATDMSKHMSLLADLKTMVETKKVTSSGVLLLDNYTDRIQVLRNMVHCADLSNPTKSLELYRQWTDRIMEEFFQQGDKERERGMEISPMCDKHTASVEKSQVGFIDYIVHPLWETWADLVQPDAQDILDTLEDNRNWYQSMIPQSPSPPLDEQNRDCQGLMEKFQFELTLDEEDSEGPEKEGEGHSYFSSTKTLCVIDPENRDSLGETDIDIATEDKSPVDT
High affinity 3',5'-cyclic-AMP phosphodiesterase 7A, sequence (Q13946 whole entry, the tested form may be a part): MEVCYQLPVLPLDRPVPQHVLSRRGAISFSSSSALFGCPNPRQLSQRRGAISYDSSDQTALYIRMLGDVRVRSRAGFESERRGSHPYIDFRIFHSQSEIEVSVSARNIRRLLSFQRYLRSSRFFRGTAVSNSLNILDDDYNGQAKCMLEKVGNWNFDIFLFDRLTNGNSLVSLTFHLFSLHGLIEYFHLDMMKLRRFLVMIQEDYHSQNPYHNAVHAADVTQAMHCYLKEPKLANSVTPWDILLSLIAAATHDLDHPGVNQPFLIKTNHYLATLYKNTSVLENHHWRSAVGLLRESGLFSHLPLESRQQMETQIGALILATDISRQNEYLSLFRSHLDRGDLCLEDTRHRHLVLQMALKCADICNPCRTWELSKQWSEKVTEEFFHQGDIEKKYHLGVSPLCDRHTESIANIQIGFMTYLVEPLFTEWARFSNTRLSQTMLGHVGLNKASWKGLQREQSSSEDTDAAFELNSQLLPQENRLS

For orientation: Ki means the equilibrium dissociation constant of an inhibitor or competing ligand from its target. A high value points to a looser hold on the target. Regarding `COc1ccccc1CNC(=O)CCCN1CCN(c2ccccc2OC)CC1`, the Ki worked out at 292 nM in [1] and 869 nM in [2].
Take `COc1ccccc1N1CCN(CCCC(=O)Nc2ccccc2C(N)=O)CC1`: the Ki in data set [1] came out at 526 nM; in [2], 1140 nM.
In [2], `COc1ccccc1N1CCN(CCCCCC(=O)Nc2cc(C(C)(C)C)ccc2O)CC1` gave a Ki of 154 nM.
Turning to `COc1ccccc1N1CCN(CCCCC(=O)Nc2cccc(C(=O)OC(C)(C)C)c2)CC1`, the Ki in data set [2] worked out at 927 nM.
In general, IC50 refers to the concentration at which inhibition is half-maximal. Take `COc1ccccc1N1CCN(CCCCC(=O)Nc2cccc(C(C)C)c2)CC1.Cl`: the IC50 in data set [3] is 88100 nM; in data set [4], more than 200000 nM. In data set [2], this compound showed a Ki of 151 nM. For the same compound, the Papp at 5 h, 200 µM in [5] is 8.6 ×10⁻⁶ cm/s. Moreover, the remaining at 2 h, 50 µM in [6] came to 6.5%.
`COc1ccccc1N1CCN(CCCCCC(=O)Nc2ccc(C(=O)OC(C)(C)C)cc2)CC1`: the Ki in data set [1] worked out at 125 nM; in data set [2] it was 799 nM.
For the compound `COc1ccccc1CNC(=O)CCCCCN1CCN(c2ccccc2OC)CC1`, the values for the Ki in data set [1] and in [2] were 64 nM and 515 nM, respectively.
In data set [2], `COc1ccccc1N1CCN(CCCCC(=O)NCc2ccccc2O)CC1` gave a Ki of 343 nM. In other words, the sub-micromolar range.
In the case of `COc1ccccc1N1CCN(CCCCC(=O)Nc2ccc(C(C)(C)C)cc2)CC1`, the IC50 in data set [3] is 138000 nM; in [4], more than 200000 nM. The Ki in data set [1] came to 21 nM; in [2] it was 496 nM.
In general, inhibition in vivo refers to the drop in the measured response relative to a control, in per cent. For the compound `CN(C)CCC[C@@]1(c2ccc(F)cc2)OCc2cc(C#N)ccc21` [ESCITALOPRAM], the Activity entry in [7] is listed as “Non-Toxic”; in data set [8], “Non-Toxic”; in [9] it was 2058.5 cm. In addition, the inhibition in vivo at 20 mg/kg in [10] was found to be 49%.
As for `CCn1cc(C(=O)O)c(=O)c2cc(F)c(N3CCNCC3)cc21` [NORFLOXACIN], in data set [5], the Papp at 5 h, 200 µM is 0.6 ×10⁻⁶ cm/s.
Turning to `COc1ccccc1N1CCN(CCCCC(=O)Nc2ccc(C(C)C)cc2)CC1.Cl`, the IC50 in data set [3] was 80400 nM; in data set [4], 151000 nM. For the same compound, the Papp at 5 h, 200 µM in data set [5] worked out at 10.5 ×10⁻⁶ cm/s. Also, the Activity result in data set [11] and in data set [12] was “Non-Toxic” each time. In data set [6], the remaining at 2 h, 50 µM turned out to be 90.1%.
As to `COc1ccccc1N1CCN(CCCCC(=O)Nc2cc(C(C)(C)C)ccc2O)CC1`, the IC50 in [3] was 36500 nM; in [4], more than 200000 nM. The results for the Ki in data set [1] and in [2] were 61 nM and 159 nM, respectively.
With `COc1ccccc1N1CCN(CCCC(=O)Nc2cccc(C(C)C)c2)CC1`, the inhibition constant (Ki) in [1] is 187 nM; in data set [2] it was 157 nM.
Take `COc1ccccc1N1CCN(CCCC(=O)Nc2cc(C(C)(C)C)ccc2O)CC1`: the values for the concentration for half-maximal inhibition (IC50) in [3] and in [4] were 69000 nM and 57000 nM, respectively. For the same compound, in data set [2], the Ki worked out at 328 nM.
With `CCC(C)c1ccc(NC(=O)CCCCN2CCN(c3ccccc3OC)CC2)cc1` (centres undefined), the IC50 in data set [3] came out at 169000 nM; in data set [4], 126000 nM. In addition, the Ki stood at 14 nM in data set [1] and 323 nM in [2].
With `COc1ccccc1N1CCN(CCCC(=O)Nc2ccccc2O)CC1`, the Ki in data set [1] was 405 nM; in data set [2] it was 471 nM.
`COc1ccccc1N1CCN(CCCCCC(=O)Nc2ccc(C(C)(C)C)cc2)CC1` gave a Ki in [2] of 514 nM.
Consider `COc1ccccc1N1CCN(CCCC(=O)NCc2ccccc2O)CC1`, for which, in data set [2], the Ki was found to be 319 nM.
For the compound `COc1ccccc1N1CCN(CCCCCC(=O)Nc2cccc(C(C)C)c2)CC1`, the Ki is 34 nM in data set [1] and 141 nM in data set [2].
In the case of `COc1ccccc1N1CCN(CCCC(=O)Nc2ccc(C(C)C)cc2)CC1`, the Ki in [1] was 150 nM; in data set [2], 954 nM.
Regarding `COc1ccccc1N1CCN(CCCCCC(=O)Nc2ccccc2O)CC1`, the values for the Ki in [1] and in [2] were 95 nM and 254 nM, respectively.
For the compound `COc1ccccc1N1CCN(CCCCCC(=O)NCc2ccccc2O)CC1`, the Ki in data set [1] is 70 nM; in data set [2] it was 289 nM.
On the same counts, the results for `COc1ccccc1N1CCN(CCCC(=O)Nc2cccc(C(C)(C)C)c2)CC1` are 224 nM and 130 nM.
For the compound `CCC(C)c1ccc(NC(=O)CCCN2CCN(c3ccccc3OC)CC2)cc1` (centres undefined), the Ki was 37 nM in data set [1] and 354 nM in data set [2].
Regarding `COc1ccccc1N1CCN(CCCCCC(=O)Nc2ccc(C(C)C)cc2)CC1`, the results for the Ki in data set [1] and in data set [2] were 43 nM and 434 nM, respectively.
Consider `COc1ccccc1CNC(=O)CCCCN1CCN(c2ccccc2OC)CC1`, for which the Ki is 82 nM in data set [1] and 366 nM in data set [2].
For `COc1ccccc1N1CCN(CCCC(=O)Nc2ccc(C(=O)OC(C)(C)C)cc2)CC1`, the Ki in data set [1] was determined as 287 nM; in [2], 3280 nM.
On the same counts, the results for `COc1ccccc1N1CCN(CCCCCC(=O)Nc2cccc(C(C)(C)C)c2)CC1` are 53 nM and 190 nM.
On the same counts, the results for `COc1ccccc1N1CCN(CCCCC(=O)Nc2ccccc2C(N)=O)CC1` are 82 nM and 1870 nM.
Take `COc1ccccc1N1CCN(CCCCC(=O)Nc2ccccc2O)CC1`: the Ki in [1] was 31 nM; in data set [2], 300 nM.
What is called Kb is the equilibrium dissociation constant of an antagonist, usually derived from a functional assay. With `COc1ccccc1N1CCN(CCCCC(=O)Nc2cccc(C(C)(C)C)c2)CC1.Cl`, the IC50 in [3] was 130000 nM; in data set [4], more than 200000 nM. Further, the figures for the Ki in data set [1] and in data set [2] were 16 nM and 75 nM, respectively. Moreover, the Kb in data set [13] was determined as 54 nM. Moreover, the Papp at 5 h, 200 µM in data set [5] is 4.8 ×10⁻⁶ cm/s. Further, the remaining at 2 h, 50 µM in data set [6] was determined as 23.8%. Besides, the outcome in [14] was inactive.
With `COc1ccccc1N1CCN(CCCC(=O)Nc2ccc(C(C)(C)C)cc2)CC1`, the IC50 amounted to 96000 nM in data set [3] and 27000 nM in data set [4]. Moreover, in data set [2], affinity was put at a Ki of 1200 nM.
Turning to `COc1ccccc1N1CCN(CCCCC(=O)NCc2ccc(C(C)(C)C)cc2)CC1`, the Ki in data set [1] was determined as 138 nM; in data set [2] it was 391 nM.
Regarding `O=S(=O)(NCCCCN1CCN(c2nsc3ccccc23)CC1)c1c[nH]c2ncccc12`, the Ki in data set [15] amounted to 78 nM; in data set [16], 93 nM.
For the compound `CCC(C)c1ccc(NC(=O)CCCCCN2CCN(c3ccccc3OC)CC2)cc1` (centres undefined), the Ki in [1] came to 69 nM; in data set [2] it was 260 nM.
